Data as given in US20100063006A1, “COMPOSITIONS AND METHODS TO REDUCE FAT AND RETRACT SKIN” (American Network of Lipolysis, LLC, priority 2006, published 2010).
Counter-ions that a name gives are not always drawn.

What was measured:
[1] = test system: cultured human adipocytes; assay: In vitro lipolysis assays (basal lipolysis rate, triglyceride detection) in cultured human adipocytes; format: cell-based; conditions: adipocytes incubated 12-14 hours in test composition; FIG. 8
Description: Lipolysis induced in cultured human adipocytes by certain embodiments of the inventive injectable compositions for fat reduction and their constituent components was assayed in vitro under controlled conditions.
Cells utilized for the in vitro assays were obtained from five different dermolipectomy specimens. Preadipocytes were cultured in differentiation media over 14 days to produce adipocytes incubated between 12-14 hours in each of 12 test solutions. Each of the cell lines incubated in each of the 12 test solutions were split and introduced into four in vitro assays.
Cell lines were incubated in each of the following compositions: • 1. Phosphatidylcholine 25.6 milligrams per milliliter (mg/mL)/Deoxycholate 24.8 mg/mL, Benzyl Alcohol 25.6 mg/mL, ISUPREL 8 mg/mL, and Ropivacaine 5 mg/mL. • 2. Phosphatidylcholine 24.0 mg/mL/Deoxycholate 19.8 mg/mL, Benzyl Alcohol 25.6 mg/mL, ISUPREL 8 mg/mL, and Ropivacaine 5 mg/mL. • 3. Phosphatidylcholine 50.0 mg/mL/Deoxycholate 42.0 mg/mL. • 4. Deoxycholate 10.0 mg/mL. • 5. Phosphatidylcholine 45.0 mg/mL/Deoxycholate 42.0 mg/mL. • 6. Phosphatidylcholine 53.0 mg/mL/Deoxycholate 42.0 mg/mL. • 7. Phosphatidylcholine 50 mg/mL in mineral oil. • 8. Deoxycholate 24.8 mg/mL. • 9. Benzyl alcohol 25.6 mg/mL. • 10. ISUPREL 8.0 mg/mL. • 11. Ropivacaine 5.0 mg/mL. • 12. Vitamin B complex and pentoxyffline • 13. Control--Saline Solution. […]
B. Basal Lipolysis Rate. Free lipid in collected supernatant was quantified using a Lipolyis assay available from Zan-Bio, Catalog No. LIP-1 to measure released glycerol. […] The quinoneimine dye has an absorbance maximum at 540 nanometers. The increase in absorbance at 540 nanometers is directly proportionate to glycerol concentration in the supernatant.
D. Triglyceride Detection. The amount of triglyceride was quantified by measurement of glycerol released by cell lysis into the supernatant utilizing a triglyceride assay kit available from Zen-Bio, Catalog No. TG-1-NC. There is a molar equivalent of triglyceride for each mole of glycerol detected.

[2] = nausea, vomiting, diarrhea, flushing, sweating, bradycardia; cited from earlier work

Row | Molecule | lipolytic action (free lipids) compared with the saline control [1] | total administered amount of PC above which cholinergic side effects occur [2]
1 | OCc1ccccc1 [Test composition no. 9, Benzyl alcohol] | do not appear to have lipolytic action greater than the control | 
2 | CC(C)NCC(O)c1ccc(O)c(O)c1 (stereo not shown) [Test composition no. 10, isoproterenol hydrochloride] | do not appear to have lipolytic action greater than the control | 
3 | CCCN1CCCC[C@H]1C(=O)Nc1c(C)cccc1C [Test composition no. 11, Ropivacaine] | do not appear to have lipolytic action greater than the control | 
4 | phosphatidylcholine [PC] |  | exceeds 2000 mg per treatment
